Experimental data reported in US11517571B2, “Use of kinase inhibitors to manage tuberculosis and other infectious diseases” (priority 2015, dated 2022).

Columns and labels:
mycobacterium [1] = experiment: Mice infected with mycobacterium, CFU in the spleen; format: in vivo; conditions: 7 days p.i., FIG. 2
Description: Mice infected with mycobacterium were administered […], rifabutin (2.5 mg/kg/day) alone, and/or a combination of both. CFU in the spleen were determined 7 days (p.i.).

mycobacterium [2] = experiment: In vivo studies with animals infected with mycobacterium
c-Kit = c-Kit (Homo sapiens, UniProt P10721); conditions: in vivo
Sequence of c-Kit (P10721 26-976): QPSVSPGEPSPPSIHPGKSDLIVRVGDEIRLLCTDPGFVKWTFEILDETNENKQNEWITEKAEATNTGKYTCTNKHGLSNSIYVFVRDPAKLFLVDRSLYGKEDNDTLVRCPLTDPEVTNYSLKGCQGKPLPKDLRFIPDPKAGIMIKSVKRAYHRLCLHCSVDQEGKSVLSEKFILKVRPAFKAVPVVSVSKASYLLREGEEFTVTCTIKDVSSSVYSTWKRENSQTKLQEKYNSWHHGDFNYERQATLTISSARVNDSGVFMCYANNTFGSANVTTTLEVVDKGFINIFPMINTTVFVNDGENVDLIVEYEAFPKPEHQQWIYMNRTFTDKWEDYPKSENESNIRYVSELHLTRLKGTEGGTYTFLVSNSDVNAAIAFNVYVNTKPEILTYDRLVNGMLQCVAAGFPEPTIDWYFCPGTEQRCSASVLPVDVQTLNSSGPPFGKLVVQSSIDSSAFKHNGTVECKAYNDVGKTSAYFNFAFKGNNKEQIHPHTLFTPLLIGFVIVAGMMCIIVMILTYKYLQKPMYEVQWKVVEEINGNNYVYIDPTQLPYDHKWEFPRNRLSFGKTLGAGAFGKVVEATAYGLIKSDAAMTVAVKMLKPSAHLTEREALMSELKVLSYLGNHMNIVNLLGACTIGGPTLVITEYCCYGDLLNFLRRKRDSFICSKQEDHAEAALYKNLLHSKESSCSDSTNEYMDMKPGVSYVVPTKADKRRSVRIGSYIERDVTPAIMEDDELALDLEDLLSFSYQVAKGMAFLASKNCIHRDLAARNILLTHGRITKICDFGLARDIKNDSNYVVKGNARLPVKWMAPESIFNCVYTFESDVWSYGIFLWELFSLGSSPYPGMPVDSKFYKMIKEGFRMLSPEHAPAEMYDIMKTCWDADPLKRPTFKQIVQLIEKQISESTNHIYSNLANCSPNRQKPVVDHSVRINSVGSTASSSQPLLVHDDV

[3] = in vivo
[4] = system: Mtb within infected macrophages; experiment: Mtb in infected macrophages: bacterial load and phagosome-to-lysosome translocation; format: cell-based
Mtb = experiment: Rhesus macaque latent TB reactivated by SIV; format: in vivo, Rhesus macaques; conditions: then SIV
[5] = Drug concentration in the blood after administration

Compound	bacterial load (CFU in the spleen) (mycobacterium [1]; rifabutin 2.5 mg/kg/day alone)	amount of granulomatous lesions within the liver (mycobacterium [2])	bacterial load in macrophages (mycobacterium [2])	myelopoiesis (stem cells divide and differentiate along the myeloid lineage) (c-Kit)	numbers of innate immune cells in the blood and organs (c-Kit)	concentration in the blood [3] [nM]	bacterial load in macrophages ([4]; FIG. 1)	translocation of Mtb from the phagosome into the lysosome ([4]; at peak concentration in the micromolar range, depends on Abl)	bacterial load (CFU in the spleen) (mycobacterium [1]; 100 mg/kg/day alone)	survival (Mtb; latent infection for 6-10 weeks, daily treatment, FIG. 3B)	TB reactivation induced by SIV (Mtb; latent infection)	peak concentration [5]	time to peak concentration [5] [h]
CO[C@H]1/C=C/O[C@@]2(C)Oc3c(C)c(O)c4c(c3C2=O)C2=NC3(CCN(CC(C)C)CC3)NC2=C(NC(=O)/C(C)=C\C=C\[C@H](C)[C@H](O)[C@@H](C)[C@@H](O)[C@@H](C)[C@H](OC(C)=O)[C@@H]1C)C4=O [Rifabutin]	decrease in bacterial load												
Cc1ccc(NC(=O)c2ccc(CN3CCN(C)CC3)cc2)cc1Nc1nccc(-c2cccnc2)n1 [imatinib, N-(4-methyl-3-((4-(pyridin-3-yl)pyrimidin-2-yl)amino)phenyl)-4-((4-methylpiperazin-1-yl)methyl)benzamide]		reduced the amount of granulomatous lesions	reduced bacterial load in macrophages	encourages the stem cells to divide and differentiate along the myeloid lineage	increase	~100	decreases bacterial load	induces translocation of Mtb	decrease in bacterial load	survived	prevents reactivation	micromolar range	≤ 6
